Data as given in patent US10821115B2, “Compounds that inhibit Mcl-1 protein” (priority 2017, dated 2020).

tested on: human multiple myeloma cell line, OPM-2; assay: Cell viability assay (OPM-2 10 FBS), CellTiter-Glo; format: cell-based; conditions: Homo sapiens, OPM-2, 16 h, read-out: OPM-2 10% FBS IC50 IP, OPM-2 cells, 10% FBS, 16 h, CellTiter-Glo
Method in brief: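 Steps: plate cells at 3000/well in 10% FBS growth medium, add serially diluted compound, incubate 16 h at 37 °C with 5% CO2, add detection reagent and read luminescence after 25 min. A 4-parameter logistic model gives IC50.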

In order of rising IC50:
1. CO[C@]1(c2cccc(F)n2)/C=C/C[C@H](C)[C@@H](C)S(=O)(=O)NC(=O)c2ccc3c(c2)N(C[C@@H]2CC[C@H]21)C[C@@]1(CCCc2cc(Cl)ccc21)CO3 [Example 100340, (1S,3′R,6′R,7′R,8′E,11′S,12′R)-6-chloro-7′-(6-fluoro-2-pyridinyl)-7′-methoxy-11′,12′-dimethyl-3,4-dihydro-2H,15′H-spiro[naphthalene-1,22′-[20]oxa[13]thia[1,14]diazatetracyclo [14.7.2.0~3,6~.0~19,24~]pentacosa[8,16,18,24]tetraen]-15′-one 13′,13′-dioxide]  308 nM
2. CCN(CC)C(=O)C[C@]1(OC)/C=C/C[C@H](C)[C@@H](C)S(=O)(=O)NC(=O)c2ccc3c(c2)N(C[C@@H]2CC[C@H]21)C[C@@]1(CCCc2cc(Cl)ccc21)CO3 [Example 100347, 2-((1S,3′R,6′R,7′S,8′E,11′S,12′R)-6-chloro-7′-methoxy-11′,12′-dimethyl-13′,13′-dioxido-15′-oxo-3,4-dihydro-2H-spiro[naphthalene-1,22′-[20]oxa[13]thia[1,14]diazatetracyclo [14.7.2.0~3,6~.0~19,24~]pentacosa[8,16,18,24]tetraen]-7′-yl)-N,N-diethylacetamide]  1080 nM

same assay, conditions: Homo sapiens, OPM-2, 16 h, read-out: OPM-2 10% FBS IC50 IP, OPM-2 cells, 10% FBS, 16 h incubation

In order of rising IC50:
1. COCC[C@@H]1[C@@H](C)C/C=C/[C@@](CN2CCN(C(C)C)[C@H](C)C2)(OC)[C@@H]2CC[C@H]2CN2C[C@@]3(CCCc4cc(Cl)ccc43)COc3ccc(cc32)C(=O)NS1(=O)=O [Example 12, (1S,3′R,6′R,7′R,8′E,11′S,12′R)-6-chloro-7′-methoxy-12′-(2-methoxyethyl)-11′-methyl-7′-(((3R)-3-methyl-4-(1-methylethyl)-1-piperazinyl)methyl)-3,4-dihydro-2H, 15′H-spiro[naphthalene-1,22′-[20]oxa[13]thia[1,14]diazatetracyclo[14.7.2.0-3,6˜.0˜19,24˜]pentacosa[8,16,18,24]tetraen]-15′-one 13′,13′-dioxide]  22 nM
2. CO[C@@]1(CN2CCN(C3COC3)CC2)/C=C/C[C@H](C)[C@@H](C)S(=O)(=O)NC(=O)c2ccc3c(n2)N(C[C@@H]2CC[C@H]21)C[C@@]1(CCCc2cc(Cl)ccc21)CO3 [Example 19, (1 S,3′R,6′R,7′S,8′E,11′S,12′R)-6-chloro-7′-methoxy-11′,12′-dimethyl-7′-((4-(3-oxetanyl)-1-piperazinyl)methyl)-3,4-dihydro-2H, 15′H-spiro[naphthalene-1,22′-[20]oxa[13]thia[1,14,25]triazatetracyclo[14.7.2.0-3,6˜.0˜19,24˜]pentacosa[8,16,18,24]tetraen]-15′-one 13′,13′-dioxide]  47 nM
3. COCC(COC)N1CCN(C[C@]2(OC)/C=C/C[C@H](C)[C@@H](C)S(=O)(=O)NC(=O)c3ccc4c(c3)N(C[C@@H]3CC[C@H]32)C[C@@]2(CCCc3cc(Cl)ccc32)CO4)CC1 [Example 287, (1S,3′R,6′R,7′S,8′E,11′S,12′R)-6-chloro-7′-methoxy-7′-((4-(2-methoxy-1-(methoxymethyl)ethyl)-1-piperazinyl)methyl)-11′,12′-dimethyl-3,4-dihydro-2H,15′H-spiro[naphthalene-1,22′-[20]oxa[13]thia[1,14]diazatetracyclo [14.7.2.0~3,6~.0~19,24~]pentacosa[8,16,18,24]tetraen]-15′-one 13′,13′-dioxide]  50 nM
4. CCO[C@]1(CN2CCN(C3COC3)CC2)/C=C/C[C@H](C)[C@@H](CCOC)S(=O)(=O)NC(=O)c2ccc3c(c2)N(C[C@@H]2CC[C@H]21)C[C@@]1(CCCc2cc(Cl)ccc21)CO3 [Example 14, (1S,3′R,6′R,7′R,8′E,11′S,12′R)-6-chloro-7′-ethoxy-12′-(2-methoxyethyl)-11′-methyl-7′-((4-(3-oxetanyl)-1-piperazinyl)methyl)-3,4-dihydro-2H,15′H-spiro[naphthalene-1,22′-[20]oxa[13]thia[1,14]diazatetracyclo[14.7.2.0-3,6˜.0˜19,24˜]pentacosa[8,16,18,24]tetraen]-15′-one 13′,13′-dioxide]  59 nM
5. CO[C@@]1(CN2CCN(C3CCOCC3)CC2)/C=C/C[C@H](C)[C@@H](C)S(=O)(=O)NC(=O)c2ccc3c(c2)N(C[C@@H]2CC[C@H]21)C[C@@]1(CCCc2cc(Cl)ccc21)CO3 [Example 262, (1S,3′R,6′R,7′S,8′E,11′S,12′R)-6-chloro-7′-methoxy-11′,12′-dimethyl-7′-((4-(tetrahydro-2H-pyran-4-yl)-1-piperazinyl)methyl)-3,4-dihydro-2H,15′H-spiro[naphthalene-1,22′-[20]oxa[13]thia[1,14]diazatetracyclo [14.7.2.0~3,6~.0~19,24~]pentacosa[8,16,18,24]tetraen]-15′-one 13′,13′-dioxide]  89 nM
6. CO[C@]1(CNCCN2CCOCC2)/C=C/C[C@H](C)[C@@H](C)S(=O)(=O)NC(=O)c2ccc3c(c2)N(C[C@@H]2CC[C@H]21)C[C@@]1(CCCc2cc(Cl)ccc21)CO3 [Example 36, (1S,3′R,6′R,7′R,8′E,11′S,12′R)-6-chloro-7′-methoxy-11′,12′-dimethyl-7′-(((2-(4-morpholinyl)ethyl)amino)methyl)-3,4-dihydro-2H,15′H-spiro[naphthalene-1,22′-[20]oxa[13]thia[1,14]diazatetracyclo [14.7.2.0~3,6~.0~19,24~]pentacosa[8,16,18,24]tetraen]-15′-one 13′,13′-dioxide]  518 nM
7. CC(C)N(CCO)C[C@]1(O)/C=C/C[C@H](C)[C@@H](C)S(=O)(=O)NC(=O)c2ccc3c(c2)N(C[C@@H]2CC[C@H]21)C[C@@]1(CCCc2cc(Cl)ccc21)CO3 [Example 126, (1 S,3′R,6′R,7′S,8′E,11′S,12′R)-6-chloro-7′-hydroxy-7′-(((2-hydroxyethyl)(1-methylethyl)amino)methyl)-11′,12′-dimethyl-3,4-dihydro-2H, 15′H-spiro[naphthalene-1,22′-[20]oxa[13]thia[1,14]diazatetracyclo[14.7.2.0-3,6˜.0˜19,24˜]pentacosa[8,16,18,24]tetraen]-15′-one 13′,13′-dioxide]  900 nM
8. C[C@@H]1[C@@H](C)C/C=C/[C@@](O)(CNC(C)(C)C)[C@@H]2CC[C@H]2CN2C[C@@]3(CCCc4cc(Cl)ccc43)COc3ccc(cc32)C(=O)NS1(=O)=O [Example 125, (1S,3′R,6′R,7′S,8′E,11′S,12′R)-7′-((tert-butylamino)methyl)-6-chloro-7′-hydroxy-11′,12′-dimethyl-3,4-dihydro-2H,15′H-spiro[naphthalene-1,22′-[20]oxa[13]thia[1,14]diazatetracyclo[14.7.2.0-3,6˜.0˜19,24˜]pentacosa[8,16,18,24]tetraen]-15′-one 13′,13′-dioxide]  1480 nM

same assay, conditions: read-out: OPM-2 10% FBS IC50 IP; OPM-2 cells, 10% FBS, 16 h, CellTiter-Glo

In order of rising IC50:
1. CO[C@@]1(CC(=O)N(C)C)/C=C/C[C@H](C)[C@@H](C)S(=O)(=O)NC(=O)c2ccc3c(c2)N(C[C@@H]2CC[C@H]21)C[C@@]1(CCCc2cc(Cl)ccc21)CO3 [Example 100135, 2-((1S,3′R,6′R,7′S,8′E,11′S,12′R)-6-chloro-7′-methoxy-11′,12′-dimethyl-13′,13′-dioxido-15′-oxo-3,4-dihydro-2H-spiro[naphthalene-1,22′-[20]oxa[13]thia[1,14]diazatetracyclo [14.7.2.0~3,6~.0~19,24~]pentacosa[8,16,18,24]tetraen]-7′-yl)-N,N-dimethylacetamide]  161 nM
2. C[C@@H]1[C@@H](C)C/C=C/[C@@](O)(C#C[Si](C)(C)C)[C@@H]2CC[C@H]2CN2C[C@@]3(CCCc4cc(Cl)ccc43)COc3ccc(cc32)C(=O)NS1(=O)=O [Example 100240, (1S,3′R,6′R,7′S,8′E,11′S,12′R)-6-chloro-7′-hydroxy-11′,12′-dimethyl-7′-((trimethylsilyl)ethynyl)-3,4-dihydro-2H,15′H-spiro[naphthalene-1,22′-[20]oxa[13]thia[1,14]diazatetracyclo [14.7.2.0~3,6~.0~19,24~]pentacosa[8,16,18,24]tetraen]-15′-one 13′,13′-dioxide]  266 nM
3. CO[C@@]1(C#CCCN2CCS(=O)(=O)CC2)/C=C/C[C@H](C)[C@@H](C)S(=O)(=O)NC(=O)c2ccc3c(c2)N(C[C@@H]2CC[C@H]21)C[C@@]1(CCCc2cc(Cl)ccc21)CO3 [Example 100456, (1S,3′R,6′R,7′S,8′E,11′S,12′R)-6-chloro-7′-(4-(1,1-dioxido-4-thiomorpholinyl)-1-butyn-1-yl)-7′-methoxy-11′,12′-dimethyl-3,4-dihydro-2H,15′H-spiro[naphthalene-1,22′-[20]oxa[13]thia[1,14]diazatetracyclo [14.7.2.0~3,6~.0~19,24~]pentacosa[8,16,18,24]tetraen]-15′-one 13′,13′-dioxide]  1230 nM

same assay, conditions: read-out: OPM-2 10% FBS IC50 IP; OPM-2 cells, 10% FBS, 16 h incubation

In order of rising IC50:
1. CO[C@@]1(C(=O)N(C)C)/C=C/C[C@H](C)[C@@H](C)S(=O)(=O)NC(=O)c2ccc3c(c2)N(C[C@@H]2CC[C@H]21)C[C@@]1(CCCc2cc(Cl)ccc21)CO3 [Example 176, (1S,3′R,6′R,7′S,8′E,11′S,12′R)-6-chloro-7′-methoxy-N,N, 11′,12′-tetramethyl-15′-oxo-3,4-dihydro-2H-spiro[naphthalene-1,22′-[20]oxa[13]thia[1,14]diazatetracyclo[14.7.2.0-3,6˜.0˜19,24˜]pentacosa[8,16,18,24]tetraene]-7′-carboxamide 13′,13′-dioxide]  149 nM
2. CO[C@@]1(CN2CCN3CCCC[C@@H]3C2)/C=C/C[C@H](C)[C@@H](Cc2ccccc2)S(=O)(=O)NC(=O)c2ccc3c(c2)N(C[C@@H]2CC[C@H]21)C[C@@]1(CCCc2cc(Cl)ccc21)CO3 (single isomer, unassigned) [Example 104]  782 nM
